Assay: Diarrheogenic activity test (rat, intragastric, all or none diarrhea assessment)
Format: in vivo, Charles River rats
Conditions: doses 100 to 3000 microgram/kg
Procedure: Diarrhea is an undesirable side effect commonly associated with prostaglandins.
Groups of six adult male Charles River rats, weight range 180 to 200 grams are fasted for 24 hours prior to administering the test substance. The prostaglandin to be tested is administered intragastrically in iso-osmotic phosphate buffer at a volume of 10 ml/kg at doses ranging from 100 to 3000 microgram/kg. Control animals receive only the vehicle. The rats are placed in individual wire mesh cages and the trays lined with brown paper. Diarrhea is assessed at hourly intervals on an all or none basis for up to eight hours after administration of the prostaglandin. Diarrhea is defined as any loose or watery stool. ED50 value is assessed for each hourly diarrheogenic response.

CCCCC(C)(O)C/C=C/[C@H]1[C@H](O)CC(=O)[C@@H]1CCCCCC(C)C(=O)OC (relative stereo) [Compound II]
Rat 8 hour Diarrheogenic ED50: > 3.2 mg/kg

CCCCC(C)(O)C/C=C/[C@H]1[C@H](O)CC(=O)[C@@H]1CCCCCCC(=O)OC (relative stereo) [Compound I]
TD50 at 8 h (in vivo, po, read-out: Rat 8 hour Diarrheogenic ED50): 0.366 mg/kg

Source: patent publication US4536592A, “2-Substituted prostaglandins” (G. D. Searle & Co., priority 1984, dated 1985)
